# Reference: article PMC12731105, “Design and Synthesis of New Quinoxaline Analogs to Regenerate Sensory Auditory Hair Cells” (Cells, 2025)
# Assays:
# mouse auditory function [1] = test: Auditory brainstem response (ABR); type: in vivo, mice (Mus musculus); settings: for ABR vs control, 24 h treatment / ABR hearing vs control: C57BL/6J mice; for ABR vs control, 24 h treatment: 24 h post-treatment; for ABR hearing vs control: greater benefits at higher frequencies and at 48 and 72 h, Two-Way ANOVA, p < 0.01; for Frequency at which modest improvement in hearing threshold begins: audiometric threshold shift (ABR/DPOAE) vs vehicle-only controls
# Description: (§1) C57BL/6J male and female mice between postnatal day 24 and 30 P-24-30) were randomized into control and experimental groups (9 mice per group per compound), with each experimental group receiving a single intraperitoneal (IP) injection of Qx-294 or Qx-301 at a dose of 300 mg/kg body weight, dissolved in dimethyl sulfoxide (DMSO). Controls consisted of treatment with DMSO alone (vehicle). A total of 90 adult wild-type C57/BL6 mice were used in this study. Based on the analysis, animals were examined at various times following treatment as described below.
# (§2) Mice from all groups underwent auditory brainstem response (ABR) and distortion product otoacoustic emissions (DPOAEs) tests before the initiation of treatment with either compounds or vehicle, and at 24, 48, and 72 h post-treatment, as described below. After audiometric testing, pre-treatment mice were placed in a warm and clean cage and monitored until they were awake and able to remain upright in a sternal position. Alternatively, post-treatment mice had their cochleae processed for histological examination.
# Mice were anesthetized with a ketamine (18 mg/mL) and xylazine (2 mg/mL) solution (5–9 μL per gram body weight injected intraperitoneally). Core body temperature was maintained at 37.0 ± 0.1 C using a homeothermic heating pad system (FHC, Inc., Bowdoin, ME, USA). Tone burst stimuli were generated and controlled using Tucker Davis Technologies (TDT, Gainesville, FL, USA) System III (RX6, PA5 components). Tone bursts at 8, 16, 32, and 41.2 kHz had 1.0 ms rise-fall times with 1.0 ms plateau (3 ms total duration) and alternating stimulus polarity. Stimuli for ABR testing were calibrated using a Bruel & Kjaar type 4138 ¼” microphone and Nexus type 2691 conditioning amplifier. Stimuli were calibrated in dB peSPL and presented via high-frequency transducers (TDT SA1 driver, MF1 speakers) coupled at the ear via PE tubing. Auditory stimuli were presented at a rate of 17 stimuli per second.
# [2] = Metabolic stability against S9 fraction; type: in vitro ADME; settings: human, liver S9 fraction, against human S9 fraction (footnote), NADPH, 37 °C; read-out: Metabolic Stability t1/2 (converted)
# Description: The metabolic stability of the prodrug was assessed in the mouse liver S9 fraction. Briefly, 5 μg/mL of prodrug was incubated with 1 mg/mL mouse liver S9 fraction supplemented with 1 mg/mL nicotinamide adenine dinucleotide phosphate (NADPH) in Dulbecco’s phosphate-buffered saline at 37 °C. At designated time points (i.e., 0, 0.5, 1, 2 h), 100 μL samples were collected and quenched immediately with 300 μL methanol containing 1 μg/mL internal standard. Samples were vortexed for 30 s and centrifuged at 15,000 rpm for 10 min. Supernatant was assessed by LC/MS.
# mouse auditory function [3] = test: Distortion product otoacoustic emissions (DPOAE); type: in vivo, mice (Mus musculus); settings: for Frequencies at which DPOAE threshold improvement was statistically significant: 72 h group, p < 0.05; for Frequencies at which DPOAE threshold improvement was statistically significant / DPOAE thresholds at higher frequencies vs control: Two-Way ANOVA; for DPOAE vs control, 24 h treatment / DPOAE thresholds at higher frequencies vs control: C57BL/6J mice; for DPOAE vs control, 24 h treatment: 24 h post-treatment; for DPOAE thresholds at higher frequencies vs control: p < 0.01
# Description: as §1, §2
# Methods for recording distortion product otoacoustic emissions (DPOAEs) were similar to those previously described. Stimuli for DPOAEs were generated and controlled with modules from TDT. Pure tone frequencies (f1, f2, f2/f1 ratio ¼ 1.25), at equal levels (L1 ¼ L2 ¼ 60 dBSPL), 150 ms duration, were generated with independent sources (TDT RX6 processor) and routed through separate drivers to mix acoustically in the ear canal (via plastic tubing placed securely at the external acoustic meatus). Stimuli were calibrated in a 0.1 mL coupler, which simulates the volume of the mouse ear canal. Stimulus frequencies for the primaries are such that geometric mean (GM ¼ (f1 x f2)0.5) frequencies ranged from 6.0 to 48.5 kHz (at least eight frequencies per octave). Ear canal sound pressure levels were recorded using a low-noise probe microphone (Etymotic ER 10Bþ). The microphone output was amplified and fed into the TDT RX6 processor for digital sampling, spectral averaging, and fast Fourier transform (FFT) processing. The amplitude of f1, f2, and the cubic difference distortion product (2f1–f2) were measured from the FFT waveform. The noise floor was measured from the amplitudes in the fifth and twelfth frequency bins above and below (±60 and 120, resp.) the 2f1-f2 component. For statistical comparison (Two-Way ANOVA), the mean DPOAE amplitude across all tested primary frequency pairs was calculated and compared between treatment and control groups.
# Neuro-2A = test: TACS MTT cell proliferation / metabolic activity assay in Neuro-2A; type: cell-based, mouse; settings: 0.1 to 100 μM
# Description: HEI-OC1 cells derived from the mouse OC (kindly provided by Dr. F. Kalinec) were cultured under permissive conditions (33 °C, 10% CO2) as described in [22]. Additionally, we assessed the activity of Qx-derived compounds in the mouse neuroblastoma cell line, Neuro-2A, and the human fibrosarcoma HT-1080 (ATCC, Manassas, VA, USA) following the standard cell culture guidelines provided by the vendor.
# In vitro cell proliferation effects of all ten initial compounds (Figure 1A,B) were tested on HEI-OC1, Neuro-2A and HT-1080 cells by TACS® 3-(4,5-dimethylthiazol-2-yl)-2,5-diphenyltetrazolium bromide (MTT) Cell Proliferation Assay (R&D Systems, Minneapolis, MN, USA, 4890-025-K), following the manufacturer’s protocol. Absorbance was measured with SpectraMax® M Series Multi-Mode Microplate Reader with Soft Max Pro 7.2 GxP Software (Molecular Devices, Sunnyvale, CA, USA), and the average OD in control cells was taken as 100% of viability. Upon selecting the most viable compounds (Qx-294 and Qx-301), we proceeded with in vivo experiments. For zebrafish treatment, animals were incubated for varied times with different concentrations (50, 100, 150, 200, 250, and 300 μg/mL) of Qx-294 or Qx-301 diluted in swimming (E3) media or administered via IP injections. Mice treatment followed the same procedures as described in [18]. Following treatment, animals or tissue samples were incubated in Click-it EdU or Click-it Plus TUNEL kits (Thermo Scientific, Waltham, MA, USA), following the manufacturer’s instructions to label proliferating and apoptotic cells, respectively.
half-life at 5 μg/mL [2],Compound,"ABR vs control, 24 h treatment (mouse auditory function [1])",ABR hearing vs control (mouse auditory function [1]),Frequency at which modest improvement in hearing threshold begins (mouse auditory function [1]),Frequencies at which DPOAE threshold improvement was statistically significant (mouse auditory function [3]),"DPOAE vs control, 24 h treatment (mouse auditory function [3])",DPOAE thresholds at higher frequencies vs control (mouse auditory function [3]),Proliferative state across all tested concentrations (Neuro-2A)
~57 h,"c1ccc2nc(N3CCOCC3)cnc2c1 [Qx-294, 2-(morpholine)-quinoxaline]",no statistically significant differences,improved hearing for all test frequencies,≥ 16 kHz,above 16 kHz,no statistically significant differences,significantly lower than those of the control group,modest yet active proliferative state
9.1 ± 8.4 h,"c1ccc2nc(N3CCCC3)cnc2c1 [Qx-301, 2-(pyrrolidine)-quinoxaline]",no statistically significant differences,improved hearing for all test frequencies,≥ 22.6 kHz,above 22.6 kHz,no statistically significant differences,significantly lower than those of the control group,modest yet active proliferative state
